From US20240207414A1, “DISULFIDE-BASED PRODRUG COMPOUND” (Ludwig-Maximilians-Universitat Munchen, priority 2021, published 2024)

Key:
[1] = target: T1, glutathione reductase (GR) (Homo sapiens, UniProt P00390); test: Enzymatic activation assay: GR; format: biochemical; settings: NADPH/GR
T1 sequence (P00390 44-522): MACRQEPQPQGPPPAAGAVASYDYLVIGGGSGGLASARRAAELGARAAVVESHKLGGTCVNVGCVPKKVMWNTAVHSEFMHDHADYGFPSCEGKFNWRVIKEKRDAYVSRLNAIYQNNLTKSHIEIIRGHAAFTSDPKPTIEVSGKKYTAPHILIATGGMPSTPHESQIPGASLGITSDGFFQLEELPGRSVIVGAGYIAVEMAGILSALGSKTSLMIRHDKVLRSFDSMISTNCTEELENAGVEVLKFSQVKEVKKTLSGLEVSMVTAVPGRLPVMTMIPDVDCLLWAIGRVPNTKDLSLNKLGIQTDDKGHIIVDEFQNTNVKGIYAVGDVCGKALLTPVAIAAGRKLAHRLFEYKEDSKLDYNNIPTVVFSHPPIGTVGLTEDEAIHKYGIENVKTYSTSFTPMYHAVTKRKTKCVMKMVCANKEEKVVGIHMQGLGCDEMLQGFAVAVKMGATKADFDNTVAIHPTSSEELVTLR
Excerpt: (§1) This assay (see FIG. 2) examined the resistance of disulfide-based reduction-triggered compounds to the major cellular enzymatic systems that maintain redox homeostasis and are capable of reducing disulfides, evaluated in a cell-free assay, to see if these compounds can be useful for selective enzyme-triggered release.
(§2) Assay conditions: A black 96-well plate with black bottom was charged with solutions of fluorophore-releasing reduction-triggered probes that are compounds of the invention (P1, P2) or that are not compounds of the invention and reveal the performance of prior art systems (X19) (50 μL; 40 μM in aq. TE buffer (pH 7.4) and 4 μL DMSO). […]
(§3) Data Representation: (F(t)-F^NADPH(t)) is the fluorescence intensity of the test solution at time t, from which is subtracted a background fluorescence level also at time t from a solution with NADPH (which itself is fluorescent, and is present in 10-fold higher concentration than the probe) and with the same protein mixture but without the probe. F^max(t) is the maximum possible fluorescence intensity value at time t, determined by incubation with TCEP (100 μM)) similarly as for the chemical reductant assay. (F(t)−F^NADPH(t))/F^max(t) thus gives the timecourse of fluorescence signal, as a fraction of the maximum possible fluorescence signal. […]

[2] = target: T2, GR/GSH/Grx (glutaredoxin 2, Grx2) (Homo sapiens, UniProt Q9NS18); test: Enzymatic activation assay: GR/GSH/Grx2; format: biochemical; settings: full mixture NADPH/GR/GSH/Grx2
T2 sequence (Q9NS18 20-164): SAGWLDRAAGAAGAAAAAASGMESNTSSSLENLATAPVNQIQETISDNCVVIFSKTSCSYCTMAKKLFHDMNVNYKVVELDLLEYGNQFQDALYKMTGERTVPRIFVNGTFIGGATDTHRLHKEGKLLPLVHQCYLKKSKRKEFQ
Excerpt: as §1, §2, §3

thioredoxin 2 (Trx2) = target: T3, thioredoxin 2 (Trx2) (Homo sapiens, UniProt Q99757); test: Enzymatic activation assay: NADPH/TrxR/Trx2 system; format: biochemical; settings: NADPH/TrxR plus Trx2, 37° C., 6 h
T3 sequence (Q99757 60-166): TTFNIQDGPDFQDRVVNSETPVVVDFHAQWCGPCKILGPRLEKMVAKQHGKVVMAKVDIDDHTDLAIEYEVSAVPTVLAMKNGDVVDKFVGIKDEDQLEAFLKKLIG
Excerpt: as §1, §2, §3

[3] = Chemical reductant assay: DTT challenge (cell-free); format: physicochemical; settings: aq. TE buffer pH 7.4, 37° C., 6 h
Excerpt: This assay (see FIG. 1) examined the stability of disulfide-based reduction-triggered compounds of the invention when exposed to monothiol reductants, primarily the major physiological cellular monothiol GSH, and dithiol reductants like the disulfide reductant dithiothreitol (DTT), as evaluated in a cell-free assay, to determine whether these compounds can be useful for selective release.
Assay Conditions: A black 96-well plate with black bottom was charged with solutions of fluorophore-releasing reduction-triggered probes that are compounds of the invention (P1, P2, P3, P4 and P5) or that are not compounds of the invention and reveal the performance of prior art systems (X19) (80 μL; 25 μM in aq. TE buffer (pH 7.4) and 1.25% vol DMSO). Solutions of challenge species chosen from the monothiol glutathione (GSH, 0.1-50 mM) and the dithiol reductant dithiothreitol (DTT, 0.1-50 mM) or phosphine reductant tris-(2-carboxyethyl) phosphine (TCEP); (20 μL; 1 mM in aq. TE buffer (pH 7.4) were added and the reaction mixtures were incubated at 37° C. for 6 h while measuring fluorescence intensity over time [F(t)] using a BMG Labtech FLUOstar Omega platereader (λexc=355 nm, Δem=530 nm for PQ-OH-releasing probes X19, P1 and P2; Δexc=485 nm, Δem=530 nm for MF-OH-releasing probes P3 and P4.
Data Representation: F^max is the maximum possible fluorescence increase corresponding to complete reduction-triggered cargo release, i.e. the fluorescence intensity increase from time zero to signal plateau under TCEP incubation PQ-OH-releasing probes. F(t)/F^max(t) thus gives the timecourse measurements of fluorescence intensity, as a fraction of the maximum possible fluorescence signal. F^sat is the endpoint fluorescence intensity increase for each condition, ie. F^sat=(F(6 h)). F^sat/F^max thus gives the assay endpoint fluorescence intensity increase, as a fraction of the maximum possible fluorescence signal. In the GSH timecourse measurements shown in FIG. 1, all datasets annotated with concentrations only (0.01-10 mM) refer to GSH challenges, while datasets for TCEP positive control (100 μM) and no-reductant control (blank) are shown for comparison. The dose-response plots show F^sat/F^max for the different ratios between probe and GSH or probe and DTT concentrations, with a logarithmic horizontal scale.

| Structure (SMILES) | cargo release / processing by oxidoreductase GR [1] | cargo release / processing by GR/GSH/Grx2 [2] | cargo release / processing by TrxR plus Trx2 (thioredoxin 2 (Trx2)) | activation / cargo release by dithiol reductant DTT [3] |
| --- | --- | --- | --- | --- |
| O=C(Oc1ccc(Cl)cc1-c1nc2ccc(Cl)cc2c(=O)[nH]1)N1CCC[C@@H]2CSSC[C@@H]21 (racemic) [Compound P2, 4-chloro-2-(6-chloro-4-oxo-3,4-dihydroquinazolin-2-yl)phenyl-(cis)-hexahydro-[1,2]dithiino[4,5-b]pyridine-1(2H)-carboxylate] | resist | only processed by high levels of Grx1 and Grx2 | processed when additional high levels of Trx1 and Trx2 are added | efficiently activated by dithiol-type reductants |
| O=C(Oc1ccc(Cl)cc1-c1nc2ccc(Cl)cc2c(=O)[nH]1)N1CCC[C@@H]2CSSC[C@H]21 (racemic) [Compound P1, 4-chloro-2-(6-chloro-4-oxo-3,4-dihydroquinazolin-2-yl)phenyl-(trans)-hexahydro-[1,2]dithiino[4,5-b]pyridine-1(2H)-carboxylate] | resist | only processed by high levels of Grx1 and Grx2 | processed when additional high levels of Trx1 and Trx2 are added | efficiently activated by dithiol-type reductants |
